# Assay results published in ChEMBL document CHEMBL1126055, “A nonpromoting phorbol from the samoan medicinal plant Homalanthus nutans inhibits cell killing by HIV-1” (J Med Chem, 1992).
# Columns and labels:
# C3H 10T1/2 = experiment: Inhibition of arachidonic acid metabolite release in C3H10T1/2 cells; format: functional, Mus musculus
# [1] = molecular target: Epidermal growth factor receptor (Mus musculus) (UniProt Q01279); experiment: Inhibition of epidermal growth factor binding in C3H10T1/2 cells; format: functional, cell-based; conditions: C3H 10T1/2
# [2] = Displacement of [3H]PDBu from Protein kinase C in vitro; design: species or system Mus musculus
# Epidermal growth factor receptor (Mus musculus), sequence (Q01279 whole entry): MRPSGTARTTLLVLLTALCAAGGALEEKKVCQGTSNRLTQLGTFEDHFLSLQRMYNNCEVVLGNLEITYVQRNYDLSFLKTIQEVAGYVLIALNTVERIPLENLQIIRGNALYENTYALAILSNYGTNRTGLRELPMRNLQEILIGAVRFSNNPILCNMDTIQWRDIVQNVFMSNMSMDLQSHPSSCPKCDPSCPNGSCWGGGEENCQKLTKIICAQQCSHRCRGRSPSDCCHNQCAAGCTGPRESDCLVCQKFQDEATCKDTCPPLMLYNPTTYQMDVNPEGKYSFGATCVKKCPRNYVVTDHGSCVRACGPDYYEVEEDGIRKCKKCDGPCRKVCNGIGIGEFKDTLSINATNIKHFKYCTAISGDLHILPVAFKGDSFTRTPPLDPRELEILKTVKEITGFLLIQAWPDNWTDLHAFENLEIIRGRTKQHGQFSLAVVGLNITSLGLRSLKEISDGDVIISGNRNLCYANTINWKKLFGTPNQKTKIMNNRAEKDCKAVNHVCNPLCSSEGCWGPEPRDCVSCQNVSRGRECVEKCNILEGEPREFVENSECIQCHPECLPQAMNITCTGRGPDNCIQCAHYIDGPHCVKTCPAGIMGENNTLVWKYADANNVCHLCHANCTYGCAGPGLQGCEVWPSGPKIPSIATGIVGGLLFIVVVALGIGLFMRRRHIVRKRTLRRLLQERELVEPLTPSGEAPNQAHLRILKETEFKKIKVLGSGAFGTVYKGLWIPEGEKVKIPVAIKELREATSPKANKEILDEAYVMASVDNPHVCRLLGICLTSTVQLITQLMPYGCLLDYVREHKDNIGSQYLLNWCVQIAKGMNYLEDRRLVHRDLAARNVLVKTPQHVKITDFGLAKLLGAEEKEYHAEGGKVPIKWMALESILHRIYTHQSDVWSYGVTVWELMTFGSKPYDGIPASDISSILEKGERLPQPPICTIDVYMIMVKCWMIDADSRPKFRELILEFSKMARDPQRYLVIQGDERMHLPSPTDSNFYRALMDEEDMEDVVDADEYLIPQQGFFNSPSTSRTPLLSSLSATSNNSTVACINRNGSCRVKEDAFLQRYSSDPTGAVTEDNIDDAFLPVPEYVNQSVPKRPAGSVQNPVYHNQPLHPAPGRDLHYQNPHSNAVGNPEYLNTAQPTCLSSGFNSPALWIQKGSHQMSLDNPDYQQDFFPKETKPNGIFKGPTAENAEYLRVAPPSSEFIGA
structure (smiles),measurement,setting,value
CC(=O)O[C@@]12C[C@@H](C)[C@@]3(O)[C@@H](C=C(CO)C[C@]4(O)C(=O)C(C)=C[C@@H]34)[C@@H]1C2(C)C [PROSTRATIN],Effective concentration,C3H 10T1/2,1100 nM
same,Effective concentration,[1],220 nM
same,Ki,[2],0.0125 µM
